Test results from PubChem BioAssay (NCI).
Several values for one entry are separate records, joined by “and”; a condition that tells them apart may be missing. Equal values may be shown once.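 Compound exposure: 48 hours, 5 concentrations, 96-well plates. GI50 marks 50% less growth. TGI is the concentration that stops growth completely.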

Assays:
Assay in all cases: NCI anticancer screen, dose series, 48 h
OVCAR-8 ovarian = system: OVCAR-8 ovarian
UO-31 renal = system: UO-31 renal
K-562 leukemia = system: K-562 leukemia
HCC-2998 colon = system: HCC-2998 colon
HT29 colon = system: HT29 colon
SNB-75 CNS = system: SNB-75 CNS
CCRF-CEM leukemia = system: CCRF-CEM leukemia
A498 renal = system: A498 renal
SK-MEL-28 melanoma = system: SK-MEL-28 melanoma

## CN(C)c1ccc(N=Cc2c([O-])ccc3ccccc23)cc1.[C-]#[O+].[C-]#[O+].[Ir]
OVCAR-8 ovarian
  GI50: 28.8 µM
  TGI: > 100 µM
UO-31 renal
  GI50: 15.6 µM
  TGI: 36.4 µM
K-562 leukemia
  GI50: 37 µM
  TGI: > 100 µM
HCC-2998 colon
  GI50: 18.8 µM
  TGI: 35.3 µM
HT29 colon
  GI50: 19.2 µM
  TGI: 40.7 µM
SNB-75 CNS
  GI50: 19.3 µM
  TGI: 50.4 µM
CCRF-CEM leukemia
  GI50: 4.76 µM
  TGI: > 100 µM
A498 renal
  GI50: 22.1 µM
  TGI: 51.5 µM

## CN(C)c1ccc(C(=C2C=CC(=[N+](C)C)C=C2)c2ccc(N(C)C)cc2)cc1 (tested in a mixture with another compound)
UO-31 renal
  TGI: 1.39 µM
K-562 leukemia
  GI50: 0.047 µM
  TGI: 2.86 µM
HCC-2998 colon
  TGI: 1.53 µM
HT29 colon
  GI50: 0.0411 µM
  TGI: > 100 µM
SNB-75 CNS
  GI50: 0.0724 µM
  TGI: 0.54 µM
CCRF-CEM leukemia
  GI50: 0.231 µM
  TGI: 19.5 µM
SK-MEL-28 melanoma
  GI50: 0.141 µM
  TGI: 1.37 µM
A498 renal
  GI50: 0.0607 µM
  TGI: 0.343 µM

## CC[C@H]1CN2CCc3cc(OC)c(OC)cc3[C@@H]2C[C@@H]1C[C@H]1NCCc2cc(O)c(OC)cc21
OVCAR-8 ovarian
  TGI: 0.0519 µM and < 0.0323 µM and 0.165 µM
UO-31 renal
  TGI: 0.15 µM and 1.17 µM
K-562 leukemia
  TGI: 2.65 µM
HCC-2998 colon
  TGI: 0.0484 µM and 0.0472 µM
HT29 colon
  TGI: 0.0551 µM and 0.0171 µM and 0.047 µM
SNB-75 CNS
  GI50: 0.0155 µM and 0.025 µM
  TGI: 0.0735 µM and 0.147 µM and 0.0944 µM
SK-MEL-28 melanoma
  TGI: 0.0678 µM and 0.0487 µM and 0.266 µM
A498 renal
  GI50: 0.0165 µM and 0.025 µM
  TGI: 0.0461 µM and 0.0583 µM

## CCn1cc(/C=C/C(C)c2cn(CC)c(=O)[nH]c2=O)c(=O)[nH]c1=O (stereo not drawn)
OVCAR-8 ovarian
  TGI: > 100 µM
UO-31 renal
  TGI: > 100 µM
K-562 leukemia
  TGI: > 100 µM
HCC-2998 colon
  TGI: > 100 µM
HT29 colon
  TGI: > 100 µM
SNB-75 CNS
  TGI: > 100 µM
CCRF-CEM leukemia
  TGI: > 100 µM
SK-MEL-28 melanoma
  TGI: > 100 µM

## CC1=CC(=O)CCC2(C)C1CC[C@@H]2OC=O (stereo partly drawn)
OVCAR-8 ovarian
  TGI: > 100 µM
UO-31 renal
  TGI: > 100 µM
K-562 leukemia
  TGI: > 100 µM
HCC-2998 colon
  TGI: > 100 µM
HT29 colon
  TGI: > 100 µM
SNB-75 CNS
  TGI: > 100 µM
CCRF-CEM leukemia
  TGI: > 100 µM
SK-MEL-28 melanoma
  TGI: > 100 µM

## O=C(CC1(O)C(=O)Nc2ccccc21)c1ccccc1Cl (stereo not drawn)
OVCAR-8 ovarian
  TGI: > 100 µM
UO-31 renal
  TGI: > 100 µM
K-562 leukemia
  TGI: > 100 µM
HT29 colon
  TGI: > 100 µM
SNB-75 CNS
  TGI: > 100 µM
SK-MEL-28 melanoma
  TGI: > 100 µM
A498 renal
  TGI: > 100 µM

## CC(C)c1ccccc1NC(=O)C(=O)Cc1nc2ccccc2s1
OVCAR-8 ovarian
  TGI: > 100 µM
UO-31 renal
  TGI: > 100 µM
HCC-2998 colon
  TGI: > 100 µM
HT29 colon
  TGI: > 100 µM
SNB-75 CNS
  TGI: > 100 µM
CCRF-CEM leukemia
  TGI: > 100 µM
SK-MEL-28 melanoma
  TGI: > 100 µM
A498 renal
  TGI: > 100 µM

## CCOC(=O)N1CCc2cc(OC)c(OC)c3c2C1CC3=O (stereo not drawn)
OVCAR-8 ovarian
  TGI: > 100 µM
UO-31 renal
  TGI: > 100 µM
K-562 leukemia
  TGI: > 100 µM
HCC-2998 colon
  TGI: > 100 µM
HT29 colon
  TGI: > 100 µM
SNB-75 CNS
  TGI: > 100 µM
CCRF-CEM leukemia
  TGI: > 100 µM
A498 renal
  TGI: > 100 µM

## N#CC(C(=O)/C(=N\Nc1nc(=S)[nH]n1N)C(C#N)c1ccc(Cl)cc1)c1ccc(Cl)cc1 (stereo not drawn)
OVCAR-8 ovarian
  TGI: > 100 µM
UO-31 renal
  TGI: > 100 µM
HCC-2998 colon
  TGI: > 100 µM
HT29 colon
  TGI: > 100 µM
SNB-75 CNS
  TGI: > 100 µM
SK-MEL-28 melanoma
  TGI: > 100 µM
A498 renal
  TGI: > 100 µM

## CC(C)(C)NN=C1C(C)(C)C(=NNC(C)(C)C)C1(C)C
OVCAR-8 ovarian
  TGI: > 100 µM
UO-31 renal
  TGI: > 100 µM
K-562 leukemia
  TGI: > 100 µM
HCC-2998 colon
  TGI: > 100 µM
HT29 colon
  TGI: > 100 µM
SNB-75 CNS
  TGI: > 100 µM
SK-MEL-28 melanoma
  TGI: > 100 µM
